Measurements as given in patent US7879858B2, “Substituted tetrahydropyrrolopyrazine compounds and the use thereof in pharmaceutical compositions” (Gruenenthal GmbH, priority 2006, dated 2011).
One block for each molecule: values may come before it.

Assays:
Serotonin reuptake = target: T1, Serotonin reuptake (Rattus norvegicus, UniProt P31652); assay: Inhibition of 5HT (serotonin) uptake in rat brain synaptosomes; format: biochemical; conditions: 10 μmol; synaptosomes from rat brain
T1 construct: synaptosomes are freshly isolated from areas of the rat brain; from tissue; host or cells: rat brain synaptosomes (P2 fraction)
T1 sequence (P31652 whole entry): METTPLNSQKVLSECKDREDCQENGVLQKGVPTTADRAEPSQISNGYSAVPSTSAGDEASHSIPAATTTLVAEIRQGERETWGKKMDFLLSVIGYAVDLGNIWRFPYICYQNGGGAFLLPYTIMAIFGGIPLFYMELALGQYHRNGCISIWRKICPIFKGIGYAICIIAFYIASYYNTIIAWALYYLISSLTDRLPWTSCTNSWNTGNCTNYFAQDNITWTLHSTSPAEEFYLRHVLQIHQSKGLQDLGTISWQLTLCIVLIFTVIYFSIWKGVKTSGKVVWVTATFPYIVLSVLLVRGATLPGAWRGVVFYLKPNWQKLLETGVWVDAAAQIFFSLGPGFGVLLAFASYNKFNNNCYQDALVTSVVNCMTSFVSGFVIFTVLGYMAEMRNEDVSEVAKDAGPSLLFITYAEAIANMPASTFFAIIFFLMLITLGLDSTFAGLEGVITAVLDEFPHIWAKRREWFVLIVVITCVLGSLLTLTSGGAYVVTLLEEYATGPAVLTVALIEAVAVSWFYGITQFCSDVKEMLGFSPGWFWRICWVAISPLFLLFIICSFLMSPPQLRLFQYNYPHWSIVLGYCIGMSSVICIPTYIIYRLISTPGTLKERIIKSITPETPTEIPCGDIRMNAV
Protocol: (§1) Biological Data Inhibition of NA and 5HT Uptake
(§2) In order to be able to carry out these in vitro studies, synaptosomes are freshly isolated from areas of the rat brain. In each case a so-called “P2” fraction prepared in accordance with the instructions of Gray and Whittaker (E. G. Gray and V. P. Whittaker (1962) J. Anat. 76, 79-88) is prepared. For the NA uptake, these vesicular particles are isolated from the hypothalamus of male rat brains. A detailed description of the method can be found in the literature (M. Ch. Frink, H.-H. Hennies, W. Englberger, M. Haurand and B. Wilffert (1996) Arzneim.-Forsch./Drug Res. 46 (III), 11, 1029-1036).

NA reuptake = assay: Inhibition of NA (noradrenaline) uptake in rat hypothalamus synaptosomes; format: biochemical; conditions: synaptosomes from hypothalamus of male rat brains
Protocol: as §1, §2

SMILES: O=C(c1ccccc1F)N1CCn2cccc2C1c1cccc(Cl)c1 (centres unmarked) [Example 44, [1-(3-chloro-phenyl)-3,4-dihydro-1H-pyrrolo[1,2-a]pyrazin-2-yl]-(2-fluoro-phenyl)-methanone]
inhibition at 10 µM (Serotonin reuptake): 53% | NA reuptake % inhibition [10 μmol] (NA reuptake): 41%

SMILES: O=C(c1cccs1)N1CCn2cccc2C1c1ccccc1 (centres unmarked) [Example 22, (1-phenyl-3,4-dihydropyrrolo[1,2-a]pyrazin-2(1H)-yl)(thiophen-2-yl)methanone]
inhibition at 10 µM (Serotonin reuptake): 18% | NA reuptake % inhibition [10 μmol] (NA reuptake): 33%

SMILES: Cc1ccccc1C(=O)N1CCn2cccc2C1c1ccc(F)cc1 (centres unmarked) [Example 75, (1-(4-fluorophenyl)-3,4-dihydropyrrolo[1,2-a]pyrazin-2(1H)-yl)(o-tolyl)methanone]
inhibition at 10 µM (Serotonin reuptake): 38% | NA reuptake % inhibition [10 μmol] (NA reuptake): 17%

SMILES: COc1ccccc1C1c2cccn2CCN1C(=O)c1ccccc1F (centres unmarked) [Example 49, (2-fluorophenyl)(1-(2-methoxyphenyl)-3,4-dihydropyrrolo[1,2-a]pyrazin-2(1H)-yl)methanone]
inhibition at 10 µM (Serotonin reuptake): 47% | NA reuptake % inhibition [10 μmol] (NA reuptake): 12%

SMILES: O=C(c1ccco1)N1CCn2cccc2C1c1ccc2c(c1)OCCO2 (centres unmarked) [Example 37, [1-(2,3-dihydro-benzo[1,4]dioxin-6-yl)-3,4-dihydro-1H-pyrrolo[1,2-a]pyrazin-2-yl]-furan-2-yl-methanone]
inhibition at 10 µM (Serotonin reuptake): 55% | NA reuptake % inhibition [10 μmol] (NA reuptake): 32%

SMILES: O=C(c1ccccc1F)N1CCn2cccc2C1c1ccc2c(c1)OCCO2 (centres unmarked) [Example 35, [1-(2,3-dihydro-benzo[1,4]dioxin-6-yl)-3,4-dihydro-1H-pyrrolo[1,2-a]pyrazin-2-yl]-(2-fluoro-phenyl)-methanone]
inhibition at 10 µM (Serotonin reuptake): 66% | NA reuptake % inhibition [10 μmol] (NA reuptake): 43%

SMILES: O=C(c1ccc2c(c1)OCO2)N1CCn2cccc2C1c1ccc(Cl)c(Cl)c1 (centres unmarked) [Example 61, benzo[1,3]dioxol-5-yl-[1-(3,4-dichloro-phenyl)-3,4-dihydro-1H-pyrrolo[1,2-a]pyrazin-2-yl]-methanone]
inhibition at 10 µM (Serotonin reuptake): 64% | NA reuptake % inhibition [10 μmol] (NA reuptake): 68%

SMILES: CN(C)c1ccc(C2c3cccn3CCN2C(=O)c2ccccc2F)cc1 (centres unmarked) [Example 51, (1-(4-(dimethylamino)phenyl)-3,4-dihydropyrrolo[1,2-a]pyrazin-2(1H)-yl)(2-fluorophenyl)methanone]
inhibition at 10 µM (Serotonin reuptake): 43% | NA reuptake % inhibition [10 μmol] (NA reuptake): 19%

SMILES: O=C(CCC1CCCCC1)N1CCn2cccc2C1c1cccs1 (centres unmarked) [Example 86, 3-cyclohexyl-1-(1-(thiophen-2-yl)-3,4-dihydropyrrolo[1,2-a]pyrazin-2(1H)-yl)propan-1-one]
inhibition at 10 µM (Serotonin reuptake): 53% | NA reuptake % inhibition [10 μmol] (NA reuptake): 19%

SMILES: O=C(c1ccc(F)cc1)N1CCn2cccc2C1c1cccc(Cl)c1 (centres unmarked) [Example 46, [1-(3-chloro-phenyl)-3,4-dihydro-1H-pyrrolo[1,2-a]pyrazin-2-yl]-(4-fluoro-phenyl)-methanone]
inhibition at 10 µM (Serotonin reuptake): 52% | NA reuptake % inhibition [10 μmol] (NA reuptake): 50%

SMILES: O=C(c1ccc(F)cc1)N1CCn2cccc2C1c1cccs1 (centres unmarked) [Example 60, (4-fluorophenyl)(1-(thiophen-2-yl)-3,4-dihydropyrrolo[1,2-a]pyrazin-2(1H)-yl)methanone]
inhibition at 10 µM (Serotonin reuptake): 37% | NA reuptake % inhibition [10 μmol] (NA reuptake): 11%

SMILES: Cc1cccc(C2c3cccn3CCN2C(=O)c2ccc3c(c2)OCO3)c1 (centres unmarked) [Example 18, benzo[1,3]dioxol-5-yl-(1-m-tolyl-3,4-dihydro-1H-pyrrolo[1,2-a]pyrazin-2-yl)-methanone]
inhibition at 10 µM (Serotonin reuptake): 55% | NA reuptake % inhibition [10 μmol] (NA reuptake): 40%

SMILES: O=C(C1CC1)N1CCn2cccc2C1c1cccs1 (centres unmarked) [Example 59, cyclopropyl(1-(thiophen-2-yl)-3,4-dihydropyrrolo[1,2-a]pyrazin-2(1H)-yl)methanone]
inhibition at 10 µM (Serotonin reuptake): 31% | NA reuptake % inhibition [10 μmol] (NA reuptake): 10%

SMILES: COc1cccc(C2c3cccn3CCN2C(=O)c2ccco2)c1 (centres unmarked) [Example 30, furan-2-yl(1-(3-methoxyphenyl)-3,4-dihydropyrrolo[1,2-a]pyrazin-2(1H)-yl)methanone]
inhibition at 10 µM (Serotonin reuptake): 51% | NA reuptake % inhibition [10 μmol] (NA reuptake): 16%

SMILES: O=C(C1CC1)N1CCn2cccc2C1c1ccccc1F (centres unmarked) [Example 6, cyclopropyl(1-(2-fluorophenyl)-3,4-dihydropyrrolo[1,2-a]pyrazin-2(1H)-yl)methanone]
inhibition at 10 µM (Serotonin reuptake): 34% | NA reuptake % inhibition [10 μmol] (NA reuptake): 13%

SMILES: COc1ccccc1C(=O)N1CCn2cccc2C1c1ccccc1 (centres unmarked) [Example 27, (2-methoxyphenyl)(1-phenyl-3,4-dihydropyrrolo[1,2-a]pyrazin-2(1H)-yl)methanone]
inhibition at 10 µM (Serotonin reuptake): 28% | NA reuptake % inhibition [10 μmol] (NA reuptake): 15%

SMILES: COc1ccccc1C1c2cccn2CCN1C(=O)c1ccc2c(c1)OCO2 (centres unmarked) [Example 3, benzo[1,3]dioxol-5-yl-[1-(2-methoxy-phenyl)-3,4-dihydro-1H-pyrrolo[1,2-a]pyrazin-2-yl]-methanone]
inhibition at 10 µM (Serotonin reuptake): 86% | NA reuptake % inhibition [10 μmol] (NA reuptake): 29%

SMILES: Cc1cccc(C2c3cccn3CCN2C(=O)c2ccc(F)cc2)c1 (centres unmarked) [Example 13, (4-fluoro-phenyl)-(1-m-tolyl-3,4-dihydro-1H-pyrrolo[1,2-a]pyrazin-2-yl)-methanone]
inhibition at 10 µM (Serotonin reuptake): 55% | NA reuptake % inhibition [10 μmol] (NA reuptake): 41%

SMILES: O=C(c1ccc2c(c1)OCO2)N1CCn2cccc2C1c1cccs1 (centres unmarked) [Example 56, benzo[1,3]dioxol-5-yl-(1-thiophen-2-yl-3,4-dihydro-1H-pyrrolo[1,2-a]pyrazin-2-yl)-methanone]
inhibition at 10 µM (Serotonin reuptake): 56% | NA reuptake % inhibition [10 μmol] (NA reuptake): 35%

SMILES: O=C(c1ccco1)N1CCn2cccc2C1c1ccccc1 (centres unmarked) [Example 21, furan-2-yl(1-phenyl-3,4-dihydropyrrolo[1,2-a]pyrazin-2(1H)-yl)methanone]
inhibition at 10 µM (Serotonin reuptake): 11% | NA reuptake % inhibition [10 μmol] (NA reuptake): 44%

Further lines, with some results ahead:

inhibition at 10 µM (Serotonin reuptake): 46%
SMILES: CC(C)C(=O)N1CCn2cccc2C1c1ccc(Cl)c(Cl)c1 (centres unmarked) [Example 67, 1-(1-(3,4-dichlorophenyl)-3,4-dihydropyrrolo[1,2-a]pyrazin-2(1H)-yl)-2-methylpropan-1-one]
NA reuptake % inhibition [10 μmol] (NA reuptake): 46%

inhibition at 10 µM (Serotonin reuptake): 52%
SMILES: O=C(c1ccc2c(c1)OCO2)N1CCn2cccc2C1c1ccc2c(c1)OCCO2 (centres unmarked) [Example 33, benzo[1,3]dioxol-5-yl-[1-(2,3-dihydro-benzo[1,4]dioxin-6-yl)-3,4-dihydro-1H-pyrrolo[1,2-a]pyrazin-2-yl]-methanone]
NA reuptake % inhibition [10 μmol] (NA reuptake): 26%

inhibition at 10 µM (Serotonin reuptake): 29%
SMILES: O=C(C1CCC1)N1CCn2cccc2C1c1ccc(F)cc1 (centres unmarked) [Example 28, cyclobutyl(1-(4-fluorophenyl)-3,4-dihydropyrrolo[1,2-a]pyrazin-2(1H)-yl)methanone]
NA reuptake % inhibition [10 μmol] (NA reuptake): 21%

inhibition at 10 µM (Serotonin reuptake): 35%
SMILES: O=C(c1ccc(F)cc1)N1CCn2cccc2C1c1ccc(F)cc1F (centres unmarked) [Example 19, (1-(2,4-difluorophenyl)-3,4-dihydropyrrolo[1,2-a]pyrazin-2(1H)-yl)(4-fluorophenyl)methanone]
NA reuptake % inhibition [10 μmol] (NA reuptake): 28%

inhibition at 10 µM (Serotonin reuptake): 58%
SMILES: O=C(c1cccc(F)c1)N1CCn2cccc2C1c1cccc(Cl)c1 (centres unmarked) [Example 43, [1-(3-chloro-phenyl)-3,4-dihydro-1H-pyrrolo[1,2-a]pyrazin-2-yl]-(3-fluoro-phenyl)-methanone]
NA reuptake % inhibition [10 μmol] (NA reuptake): 66%

inhibition at 10 µM (Serotonin reuptake): 38%
SMILES: Cc1ccsc1C(=O)N1CCn2cccc2C1c1ccccc1 (centres unmarked) [Example 70, (3-methylthiophen-2-yl)(1-phenyl-3,4-dihydropyrrolo[1,2-a]pyrazin-2(1H)-yl)methanone]
NA reuptake % inhibition [10 μmol] (NA reuptake): 11%

inhibition at 10 µM (Serotonin reuptake): 29%
SMILES: Cc1ccccc1C1c2cccn2CCN1C(=O)c1ccccc1F (centres unmarked) [Example 32, (2-fluorophenyl)(1-o-tolyl-3,4-dihydropyrrolo[1,2-a]pyrazin-2(1H)-yl)methanone]
NA reuptake % inhibition [10 μmol] (NA reuptake): 14%

inhibition at 10 µM (Serotonin reuptake): 36%
SMILES: O=C(CCc1ccccc1)N1CCn2cccc2C1c1cccs1 (centres unmarked) [Example 76, 3-phenyl-1-(1-(thiophen-2-yl)-3,4-dihydropyrrolo[1,2-a]pyrazin-2(1H)-yl)propan-1-one]
NA reuptake % inhibition [10 μmol] (NA reuptake): 46%

inhibition at 10 µM (Serotonin reuptake): 32%
SMILES: Cc1ccccc1C(=O)N1CCn2cccc2C1c1ccccc1 (centres unmarked) [Example 26, (1-phenyl-3,4-dihydropyrrolo[1,2-a]pyrazin-2(1H)-yl)(o-tolyl)methanone]
NA reuptake % inhibition [10 μmol] (NA reuptake): 23%

inhibition at 10 µM (Serotonin reuptake): 27%
SMILES: O=C(/C=C/c1ccc(F)cc1F)N1CCn2cccc2C1c1ccccc1 (centres unmarked) [Example 71, 3-(2,4-difluorophenyl)-1-(1-phenyl-3,4-dihydropyrrolo[1,2-a]pyrazin-2(1H)-yl)prop-2-en-1-one]
NA reuptake % inhibition [10 μmol] (NA reuptake): 17%

inhibition at 10 µM (Serotonin reuptake): 37%
SMILES: Cc1ccccc1C(=O)N1CCn2cccc2C1c1cccc(Cl)c1 (centres unmarked) [Example 41, (1-(3-chlorophenyl)-3,4-dihydropyrrolo[1,2-a]pyrazin-2(1H)-yl)(o-tolyl)methanone]
NA reuptake % inhibition [10 μmol] (NA reuptake): 35%

inhibition at 10 µM (Serotonin reuptake): 33%
SMILES: COCC(=O)N1CCn2cccc2C1c1ccccc1 (centres unmarked) [Example 25, 2-methoxy-1-(1-phenyl-3,4-dihydropyrrolo[1,2-a]pyrazin-2(1H)-yl)ethanone]
NA reuptake % inhibition [10 μmol] (NA reuptake): 12%

inhibition at 10 µM (Serotonin reuptake): 53%
SMILES: O=C(c1cccs1)N1CCn2cccc2C1c1cccc(Cl)c1 (centres unmarked) [Example 45, [1-(3-chloro-phenyl)-3,4-dihydro-1H-pyrrolo[1,2-a]pyrazin-2-yl]-thiophen-2-yl-methanone]
NA reuptake % inhibition [10 μmol] (NA reuptake): 43%

inhibition at 10 µM (Serotonin reuptake): 82%
SMILES: COc1ccccc1C(=O)N1CCn2cccc2C1c1ccccc1OC (centres unmarked) [Example 4, (2-methoxy-phenyl)-[1-(2-methoxy-phenyl)-3,4-dihydro-1H-pyrrolo[1,2-a]pyrazin-2-yl]-methanone]
NA reuptake % inhibition [10 μmol] (NA reuptake): 13%
